Experiment in all cases: biochemical
Common to all, as to type: binding
Holding throughout (details): for Int (fluorescence emission): residual NPN fluorescence, normalized to 100 prior to ligand, screen at 2–20 μM ligand

Assay [1] addresses CquiOBP1 (Culex quinquefasciatus, UniProt Q8T6I2). Here is the method: (§1) Binding affinity (Ban et al., [2002]) was tested with a panel of 34 compounds, including attractants, a mosquito oviposition pheromone, repellents, terpenoids and other putative mosquito attractants or repellents. Unless otherwise specified, they were purchased from Sigma-Aldrich/Fluka/Acros (St. Louis, MO). Repellents: DEET (N,N-diethyl-3-methylbenzamide), PMD (p-mentan-3,8-diol) (Bedoukian Research, Inc.), picaridin (butan-2-yl 2-(2-hydroxyethyl)piperidine-1-carboxylate), IR3535 (ethyl 3-[acetyl(butyl)amino]propanoate) (gifts from Dr. Kamal Chauhan, USDA, ARS, Beltsville), (±)-citronellal, and ethyl 2-phenylacetate. Oviposition attractants: (5R,6S)-6-acetoxy-5-hexadecanolide, MOP (Bedoukian Research, Inc.), skatole, indole, 4-methylphenol, and 4-ethylphenol. Human derived compounds: nonanal, 6-methyl-5-hepten-2-one (sulcatone). Terpenoids and other putative attractants/repellents: linalool, linalool oxide, eucalyptol, camphor, fenchone, thujone, geranyl acetate, eugenol, (Z)-3-hexenyl acetate, 1-octen-3-ol, 1-octyn-3-ol, 3-octanol, 1-hexanol, methylcyclohexanol, methyl salicylate, cyclohexanone, acetophenone, benzaldehyde, 3,5-dimethoxybenzene, 1,2-dimethoxybenzene, and 2-phenylethanol.
(§2) Fluorescence spectra were recorded in a right angle configuration on a spectrofluorimeter (RF-5301, Shimadzu, Kyoto, Japan) at room temperature using a 1 cm light path fluorimeter quartz cuvette. Slit widths of 10 nm were selected for both excitation and emission. N-phenyl-1-naphthylamine (NPN, or 1-NPN) (Ban et al., [2002]) was dissolved in methanol to yield a 1 mM stock solution. The binding affinity for NPN was determined by adding aliquots of NPN into a 10 μg/ml (microgram) protein sample. NPN was excited at 337 nm and emission spectra were recorded at high speed scanning between 350 and 500 nm. All ligands used in competition experiments were dissolved in spectrophotometric grade methanol. Binding data were collected in three independent measurements. Bound ligand was evaluated from fluorescence intensity assuming that the protein was 100% active, with a stoichiometry of 1:1 (protein: ligand) at saturation. The KNPN values were estimated using Prism 5 (GraphPad Software, Inc., La Jolla, CA) by non-linear regression for a unique site of binding. The curves were linearized using Scatchard plots. Dissociation constants of the competitors were calculated according to Campanacci et al. ([2001]) from the corresponding IC50 values in the equation: Kdiss = [IC50]/1+[NPN]/KNPN, where [NPN] is the free concentration of NPN and KNPN is the dissociation constant of the complex protein/NPN.

Assay [2] deals with CquiOBP2 (Culex quinquefasciatus, UniProt C7BDZ6). Here is the method: as §1, §2
Assay [3] addresses CquiOBP5 (Culex quinquefasciatus, UniProt C7BDZ9). Here is the method: as §1, §2
Setting [4] is: CquiOBP1, NPN displacement titration, read-out: IC50.
Setting [5] is: CquiOBP1, calculated from IC50 of NPN displacement, read-out: Kd.
Setting [6] is: CquiOBP2, NPN displacement titration, read-out: IC50.
Setting [7] is: CquiOBP2, calculated from IC50 of NPN displacement, read-out: Kd.
Setting [8] is: CquiOBP5, NPN displacement titration, read-out: IC50.
[9] abbreviates: CquiOBP5, calculated from IC50 of NPN displacement, read-out: Kd.

The values that follow come from publication PMC4343023, “Selectivity of odorant-binding proteins from the southern house mosquito tested against physiologically relevant ligands” (Frontiers in Physiology, 2015).

Like-named read-outs stand apart in the source and are kept apart here. Some results are limits rather than exact numbers.

Chain of CquiOBP5 (C7BDZ9 entry or part of it): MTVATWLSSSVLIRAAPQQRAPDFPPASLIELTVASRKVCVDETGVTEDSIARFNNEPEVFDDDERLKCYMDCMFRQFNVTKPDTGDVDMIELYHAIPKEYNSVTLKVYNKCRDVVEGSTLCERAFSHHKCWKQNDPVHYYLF
Chain of CquiOBP1 (Q8T6I2 entry or part of it): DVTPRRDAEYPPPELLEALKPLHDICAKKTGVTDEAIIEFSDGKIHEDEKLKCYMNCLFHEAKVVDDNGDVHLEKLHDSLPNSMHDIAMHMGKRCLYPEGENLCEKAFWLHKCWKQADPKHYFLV
Chain of CquiOBP2 (C7BDZ6 entry or part of it): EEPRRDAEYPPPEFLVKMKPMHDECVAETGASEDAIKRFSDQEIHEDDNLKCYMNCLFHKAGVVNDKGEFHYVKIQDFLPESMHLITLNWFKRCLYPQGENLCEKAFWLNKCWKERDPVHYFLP

In the case of `C#CC(O)CCCCC` (stereo not drawn) [1-Octyn-3-ol, 1-octyn-3-ol], the IC50 (commonly the concentration that inhibits the measured activity by half) is greater than 10 µM in assay [1] (setting [4]), greater than 10 µM in assay [2] (setting [6]) and 12.8 µM in assay [3] (setting [8]). Further, the Kd (as a rule, the constant that tells how readily two partners part at equilibrium) in assay [1] (setting [5]) is greater than 6.3 µM; in assay [2] (setting [7]) it was greater than 2.5 µM; in assay [3] (setting [9]), 8.9 µM. The figures for the “Int (fluorescence emission)” value in assay [1] (CquiOBP1), in assay [2] (CquiOBP2) and in assay [3] (CquiOBP5) were 66, 92 and 62.2, respectively.
Turning to `Cc1ccc(O)cc1` [4-Methylphenol, 4-methylphenol], the concentration for half-maximal inhibition (IC50) in assay [1] (setting [4]), in assay [2] (setting [6]) and in assay [3] (setting [8]) was greater than 10 µM each time. In addition, the dissociation constant Kd in assay [1] (setting [5]) is greater than 6.3 µM; in assay [2] (setting [7]), greater than 2.5 µM; in assay [3] (setting [9]), greater than 7 µM. For the same compound, the “Int (fluorescence emission)” value was 73 in assay [1] (CquiOBP1), 85 in assay [2] (CquiOBP2) and 90 in assay [3] (CquiOBP5).
Turning to `CC/C=C\CCOC(C)=O` [(Z)-3-Hexenyl acetate, (Z)-3-hexenyl acetate], the IC50 in assay [1] (setting [4]), in assay [2] (setting [6]) and in assay [3] (setting [8]) was greater than 10 µM in each case. Further, the Kd is greater than 6.3 µM in assay [1] (setting [5]), greater than 2.5 µM in assay [2] (setting [7]) and greater than 7 µM in assay [3] (setting [9]). Further, the results for the “Int (fluorescence emission)” value in assay [1] (CquiOBP1), in assay [2] (CquiOBP2) and in assay [3] (CquiOBP5) were 79, 93 and 83, respectively.
Consider `CC(=O)CCC=C(C)C` [Sulcatone, 6-methyl-5-hepten-2-one], for which the IC50 in assay [1], in assay [2] and in assay [3] was greater than 10 µM in each case. The Kd was greater than 6.3 µM in assay [1], greater than 2.5 µM in assay [2] and greater than 7 µM in assay [3]. In addition, the “Int (fluorescence emission)” value in assay [1] (CquiOBP1) turned out to be 87; in assay [2] (CquiOBP2), 84; in assay [3] (CquiOBP5), 66.
Take `CC(=O)OC/C=C(\C)CCC=C(C)C` [Geranyl acetate, geranyl acetate]: the IC50 in assay [1] (setting [4]), in assay [2] (setting [6]) and in assay [3] (setting [8]) was greater than 10 µM in each case. Also, the Kd in assay [1] (setting [5]) is greater than 6.3 µM; in assay [2] (setting [7]), greater than 2.5 µM; in assay [3] (setting [9]), greater than 7 µM. In addition, the “Int (fluorescence emission)” value in assay [1] (CquiOBP1) was determined as 94; in assay [2] (CquiOBP2) it was 90; in assay [3] (CquiOBP5), 81.
In the case of `CCc1ccc(O)cc1` [4-Ethylphenol, 4-ethylphenol], the IC50 in assay [1] (setting [4]), in assay [2] (setting [6]) and in assay [3] (setting [8]) was greater than 10 µM in each case. The figures for the Kd in assay [1] (setting [5]), in assay [2] (setting [7]) and in assay [3] (setting [9]) were greater than 6.3 µM, greater than 2.5 µM and greater than 7 µM, respectively. Besides, the “Int (fluorescence emission)” value in assay [1] (CquiOBP1) came to 85; in assay [2] (CquiOBP2) it was 91; in assay [3] (CquiOBP5), 84.
As to `O=Cc1ccccc1` [Benzaldehyde, benzaldehyde], the IC50 in assay [1], in assay [2] and in assay [3] was greater than 10 µM in each case. Moreover, the Kd in assay [1] is greater than 6.3 µM; in assay [2], greater than 2.5 µM; in assay [3], greater than 7 µM. For the same compound, the “Int (fluorescence emission)” value came out at 83 in assay [1] (CquiOBP1), 91 in assay [2] (CquiOBP2) and 93 in assay [3] (CquiOBP5).
`CC(=O)c1ccccc1` [Acetophenone, acetophenone]: the IC50 in assay [1] (setting [4]), in assay [2] (setting [6]) and in assay [3] (setting [8]) was greater than 10 µM in each case. Further, the Kd in assay [1] (setting [5]) is greater than 6.3 µM; in assay [2] (setting [7]), greater than 2.5 µM; in assay [3] (setting [9]), greater than 7 µM. Moreover, the “Int (fluorescence emission)” value in assay [1] (CquiOBP1) is listed as 88; in assay [2] (CquiOBP2), 92; in assay [3] (CquiOBP5), 87.
For `CCOC(=O)Cc1ccccc1` [Ethyl 2-phenylacetate, ethyl 2-phenylacetate], the half-inhibitory concentration (IC50) in assay [1], in assay [2] and in assay [3] was greater than 10 µM in each case. The Kd is greater than 6.3 µM in assay [1], greater than 2.5 µM in assay [2] and greater than 7 µM in assay [3]. Also, the “Int (fluorescence emission)” value came out at 92 in assay [1] (CquiOBP1), 87 in assay [2] (CquiOBP2) and 91 in assay [3] (CquiOBP5).
In the case of `C=CC(C)(O)CCC=C(C)C` (stereo not drawn) [Linalool, linalool], the IC50 in assay [1] (setting [4]), in assay [2] (setting [6]) and in assay [3] (setting [8]) was greater than 10 µM each time. The figures for the Kd in assay [1] (setting [5]), in assay [2] (setting [7]) and in assay [3] (setting [9]) were greater than 6.3 µM, greater than 2.5 µM and greater than 7 µM, respectively. The “Int (fluorescence emission)” value in assay [1] (CquiOBP1) came to 91; in assay [2] (CquiOBP2) it was 97; in assay [3] (CquiOBP5) it was 86.
Take `CCCCCC(O)CC` (stereo not drawn) [3-Octanol, 3-octanol]: the IC50 in assay [1] (setting [4]), in assay [2] (setting [6]) and in assay [3] (setting [8]) was greater than 10 µM in each case. Also, the Kd in assay [1] (setting [5]) was greater than 6.3 µM; in assay [2] (setting [7]), greater than 2.5 µM; in assay [3] (setting [9]), greater than 7 µM. For the same compound, the “Int (fluorescence emission)” value in assay [1] (CquiOBP1) is listed as 87; in assay [2] (CquiOBP2), 78; in assay [3] (CquiOBP5), 85.
`COc1ccccc1OC` [1,2-Dimethoxybenzene, 1,2-dimethoxybenzene]: the IC50 in assay [1] (setting [4]), in assay [2] (setting [6]) and in assay [3] (setting [8]) was greater than 10 µM throughout. In addition, the Kd in assay [1] (setting [5]) is greater than 6.3 µM; in assay [2] (setting [7]) it was greater than 2.5 µM; in assay [3] (setting [9]), greater than 7 µM. In addition, the “Int (fluorescence emission)” value is 88 in assay [1] (CquiOBP1), 91 in assay [2] (CquiOBP2) and 87 in assay [3] (CquiOBP5).
Consider `Cc1c[nH]c2ccccc12` [Skatole, skatole], for which the IC50 in assay [1] (setting [4]) was greater than 10 µM; in assay [2] (setting [6]) it was 5.6 µM; in assay [3] (setting [8]), 14.4 µM. Further, the Kd in assay [1] (setting [5]) was greater than 6.3 µM; in assay [2] (setting [7]), 1.4 µM; in assay [3] (setting [9]), 10.1 µM. The results for the “Int (fluorescence emission)” value in assay [1] (CquiOBP1), in assay [2] (CquiOBP2) and in assay [3] (CquiOBP5) were 75, 31 and 62, respectively. Besides, the “binding to CquiOBP1 (in words)” value in assay [1] (in vitro, NPN displacement) is listed as “does not bind”. Further, in assay [2] (in vitro, NPN displacement), the “binding to CquiOBP2 (in words)” value is given as “bind”. Further, the “binding to CquiOBP5 (in words)” value in assay [3] (in vitro, NPN displacement) was “bind”.
Regarding `CCCCN(CCC(=O)OCC)C(C)=O` [IR3535, ethyl 3-[acetyl(butyl)amino]propanoate], the IC50 in assay [1] (setting [4]), in assay [2] (setting [6]) and in assay [3] (setting [8]) was greater than 10 µM each time. For the same compound, the Kd in assay [1] (setting [5]) was greater than 6.3 µM; in assay [2] (setting [7]), greater than 2.5 µM; in assay [3] (setting [9]), greater than 7 µM. Also, the “Int (fluorescence emission)” value in assay [1] (CquiOBP1) came to 71; in assay [2] (CquiOBP2) it was 90; in assay [3] (CquiOBP5) it was 67.
